Results from PubChem BioAssay (NCI).
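Dose response: 5 concentrations. Exposure: 48 h. Format: 96-well plates. Endpoint: linear interpolation; highest concentration if not reached. GI50 = concentration required for 50% inhibition of growth. Definition used: TGI = concentration required for complete inhibition of growth.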 Where a SMILES comes first, the peptide text is derived from it. [ ]: non-standard residue; d: D form. The star is where a group is joined. ξ: configuration not given here. dIva = CC[C@@](C)(N)C(=O)O; Aib = CC(C)(N)C(=O)O; ξP = O=C(O)C1CCCN1; βAla = NCCC(=O)O; X5 = OCN*

What was measured:
Assay in all cases: NCI tumour cell line growth inhibition, 48 h
ACHN renal = system: ACHN renal
HOP-62 NSCLC = system: HOP-62 NSCLC
KM12 colon = system: KM12 colon
LOX IMVI melanoma = system: LOX IMVI melanoma
M14 melanoma = system: M14 melanoma
MALME-3M melanoma = system: MALME-3M melanoma
OVCAR-3 ovarian = system: OVCAR-3 ovarian
OVCAR-8 ovarian = system: OVCAR-8 ovarian
SK-MEL-5 melanoma = system: SK-MEL-5 melanoma
UO-31 renal = system: UO-31 renal

Row | SMILES | GI50 (ACHN renal) | TGI (ACHN renal) | GI50 (HOP-62 NSCLC) | TGI (HOP-62 NSCLC) | GI50 (KM12 colon) | TGI (KM12 colon) | GI50 (LOX IMVI melanoma) | TGI (LOX IMVI melanoma) | GI50 (M14 melanoma) | TGI (M14 melanoma) | GI50 (MALME-3M melanoma) | TGI (MALME-3M melanoma) | GI50 (OVCAR-3 ovarian) | TGI (OVCAR-3 ovarian) | GI50 (OVCAR-8 ovarian) | TGI (OVCAR-8 ovarian) | GI50 (SK-MEL-5 melanoma) | TGI (SK-MEL-5 melanoma) | GI50 (UO-31 renal) | TGI (UO-31 renal)
1 | C[C@H](c1ccc(Cl)cc1[N+](=O)[O-])N1C(=O)c2cc(I)ccc2NC(=O)[C@H]1c1ccc(Cl)cc1 | > 100 µM | > 100 µM | > 100 µM | > 100 µM | > 100 µM | > 100 µM | > 100 µM | > 100 µM | 85.4 µM | > 100 µM | > 100 µM | > 100 µM | 8.83 µM | > 100 µM | > 100 µM | > 100 µM | > 100 µM | > 100 µM | 2.54 µM | > 100 µM
2 | COc1ccc(CNC(=O)c2c(C)n([O-])c3cc(F)c(F)cc3[n+]2=O)cc1 | 16.9 µM | 30.6 µM | 18.2 µM | 32.7 µM | 15.7 µM | 35.5 µM | 5.22 µM | 17.5 µM | 12 µM | 24.4 µM | 11.2 µM | 26.8 µM | 10 µM | 21.6 µM | 3.72 µM | 15.9 µM | 12.7 µM | 25.3 µM | 12.8 µM | 26.6 µM
3 | CNCC1CCn2c(c(C3=C(c4cn(C)c5ccccc45)C(=O)NC3=O)c3ccccc32)C1 (stereo not given) | 3.62 µM | 13.1 µM | 3.62 µM | 9.99 µM | 3.41 µM | 7.41 µM | 3.84 µM | 7.4 µM | 3.05 µM | 6.78 µM | 2.13 µM | 5.52 µM | 3.98 µM | 8.97 µM | 3.87 µM | 10.4 µM | 3.88 µM | 7.97 µM | 2.6 µM | 6.49 µM
4 | COC(=O)C(C(=O)C(=O)Nc1ccc(N)cc1[N+](=O)[O-])c1nc2ccc(Cl)cc2[nH]c1=O (stereo not given) | – | > 100 µM | – | > 100 µM | – | > 100 µM | – | > 100 µM | – | > 100 µM | – | > 100 µM | – | > 100 µM | – | > 100 µM | – | > 100 µM | – | > 100 µM
5 | CC(=O)Nc1cc(CN2CCCCC2)c(O)c2ncccc12 | – | 72.2 µM | – | > 100 µM | – | > 100 µM | – | 84.8 µM | – | 68.2 µM | – | 69.4 µM | – | 96.9 µM | – | > 100 µM | – | > 100 µM | – | 46.8 µM
6 | CC1=C(C(=O)NCc2ccccc2)C(c2ccccc2O)C(C(=O)NCc2ccccc2)=C(C)N1 | – | 30.9 µM | – | 39.5 µM | – | 31.5 µM | – | 30.1 µM | – | 32.4 µM | – | 30.1 µM | – | 31.9 µM | – | 40.9 µM | – | 28.6 µM | – | 30.5 µM
7 | CCCCCC/C(CC(=O)CCC(=O)NCCc1ccccc1)=N\NC(=O)c1ccc2ccccc2c1O | – | > 100 µM | – | > 100 µM | – | > 100 µM | – | 48.5 µM | – | > 100 µM | – | > 100 µM | – | > 100 µM | – | > 100 µM | – | 69.5 µM | – | > 100 µM
8 | CC[C@@](C)(NC(=O)[C@H](C)NC(=O)CCNC(=O)C(C)(C)NC(=O)[C@H](C)NC(=O)[C@@H]1CCCN1C(=O)[C@@](C)(CC)NC(=O)[C@H](Cc1ccccc1)NC(=O)C1CCCN1C(=O)C(C)(C)NC(=O)C1CCCN1C(=O)C(C)(C)NC(C)=O)C(=O)NCCC(=O)N[C@@H](CC(C)C)C(=O)NC(C)(C)C(=O)NCCC(=O)N[C@@H](CC(C)C)C(=O)NC(C)(C)C(=O)NC(C)(C)C(=O)N[C@@H](CC(C)C)C(=O)NCCC(=O)NCO (stereo not given in full) (Ac-[Aib][ξP][Aib][ξP]F[dIva]PA[Aib][βAla]A[dIva][βAla]L[Aib][βAla]L[Aib][Aib]L[βAla]-X5) | 0.199 µM | 0.428 µM | 0.18 µM | 0.383 µM | 0.168 µM | 0.368 µM | 0.208 µM | 0.428 µM | 0.188 µM | 0.391 µM | 0.0595 µM | 0.256 µM | 0.144 µM | 0.353 µM | 0.119 µM | 0.359 µM | 0.0991 µM | 0.302 µM | 0.179 µM | 0.391 µM
9 | N#CCCn1c(CCC(=O)Nc2ccc(Cl)cc2Cl)n[nH]c1=S | – | > 100 µM | – | > 100 µM | – | > 100 µM | – | > 100 µM | – | > 100 µM | – | > 100 µM | – | > 100 µM | – | > 100 µM | – | > 100 µM | – | > 100 µM
10 | COc1ccc(-c2cc3c(N)ncnc3o2)cc1 | > 25 µM | > 25 µM | > 25 µM | > 25 µM | > 25 µM | > 25 µM | > 25 µM | > 25 µM | > 19.1 µM | > 25 µM | 15.5 µM | > 25 µM | > 25 µM | > 25 µM | > 25 µM | > 25 µM | > 22.4 µM | > 25 µM | 12.4 µM | > 25 µM
11 | C=C1C(OCCO)OC2O[C@]3(C)CCC4[C@H](C)CCC1C24OO3 (stereo not given in full) | 31.4 µM | > 100 µM | 52.7 µM | > 100 µM | 6.04 µM | > 100 µM | 4.15 µM | 19.2 µM | 78.4 µM | > 100 µM | 52.7 µM | > 100 µM | 15.6 µM | > 100 µM | 2.16 µM | 12.5 µM | 23.8 µM | > 100 µM | 2.78 µM | 10.2 µM
12 | CC(=O)Nc1ccccc1S(=O)c1ccccc1 (stereo not given) | – | > 100 µM | – | > 100 µM | – | > 100 µM | – | > 100 µM | – | > 100 µM | – | > 100 µM | – | > 100 µM | – | > 100 µM | – | > 100 µM | – | > 100 µM
13 | CN/N=C(/CC(=O)c1sc(NNC(C)=O)nc1C)C(=O)Nc1ccc(OC)cc1OC | – | > 100 µM | – | > 100 µM | – | > 100 µM | – | > 100 µM | – | > 100 µM | – | > 100 µM | – | > 100 µM | – | > 100 µM | – | > 100 µM | – | > 100 µM
14 | CC(C)CC1NC(=O)C(C(C)C)NC(=O)CC(C)COC(=O)C(CC(C)C)N(C)C(=O)C(C(C)C)NC(=O)C(C(C)C)OC1=O (stereo not given) | – | > 50 µM | – | > 50 µM | – | > 50 µM | – | > 50 µM | – | > 50 µM | – | > 50 µM | – | > 50 µM | – | > 50 µM | – | > 50 µM | – | > 50 µM
15 | C=C1CC(CC(=O)C(C)CC2CC(=C)C(=O)O2)OC1=O (stereo not given) | – | 35.1 µM | – | > 100 µM | – | 22.6 µM | – | 29.2 µM | – | 30 µM | – | 28.4 µM | – | 37 µM | – | > 100 µM | – | > 100 µM | – | > 100 µM
